Reference: patent US20130130992A1, “DIPEPTIDE DERIVATIVE FOR THE TREATMENT OF CANCER” (ONCOTEST GMBH, priority 2010, published 2013)
Several values for one entry are separate records, joined by “and”; a condition that tells them apart may be missing. Identical values can stand only once. Like-named read-outs stand apart in the source and are kept apart here.

Columns and labels:
[1] = test system: HNXF CAL 27; assay: Monolayer propidium iodide assay, HNXF CAL 27; assay type: cell-based; conditions: Homo sapiens, 96 h; HNXF CAL 27, Head and Neck; 4 days of treatment
Excerpt: (§1) Oncotest GmbH, Germany's proprietary tumor cell line panel comprises 40 cell lines. These cell lines were derived from 15 different tumor histotypes, each represented by 1 to 6 different cell lines. Cell lines were established from cancer of the bladder (3), colon (4), head and neck (1), lung (6), breast (3), pancreas (3), prostate (4), ovary (2), kidney (3), liver (1), stomach (1) and the uteri body (1), as well as from melanoma (3), sarcoma (2) and pleuramesothelioma (3). Out of these 40 cell lines, 24 cell lines were established at Oncotest, from patient-derived tumor xenografts. […]
(§2) Stock solutions of the compound of formula (1) (3.3 mM in DMSO) were prepared and stored in small aliquots (200 μl) at −20° C. […] Each concentration was evaluated in triplicate. […]
(§3) Cells were plated in 96-well flat-bottom microtiter plates at a cell density of 4,000 to 20,000 cells/well. […] After an incubation period of 1-2 hours at room temperature, fluorescence (FU) was measured using the Cytofluor 4000 microplate reader (excitation λ=530 nm, emission λ=620 nm) to quantify the amount of attached viable cells. […] Based on the T/C values, relative IC50 values were determined by non-linear regression (log [conc. of inhibitor] versus response (% T/C)) using the GraphPad Prism® analysis software (Prism 5 for Windows, version 5.01, GraphPad Software Inc., CA). […]

[2] = test system: panel of 40 human tumor cell lines; assay: Monolayer propidium iodide assay, whole panel; assay type: cell-based; conditions: for IC50: Homo sapiens
Excerpt: Oncotest GmbH, Germany's proprietary tumor cell line panel comprises 40 cell lines. These cell lines were derived from 15 different tumor histotypes, each represented by 1 to 6 different cell lines. Cell lines were established from cancer of the bladder (3), colon (4), head and neck (1), lung (6), breast (3), pancreas (3), prostate (4), ovary (2), kidney (3), liver (1), stomach (1) and the uteri body (1), as well as from melanoma (3), sarcoma (2) and pleuramesothelioma (3). Out of these 40 cell lines, 24 cell lines were established at Oncotest, from patient-derived tumor xenografts. The other 16 cell lines were either provided by the NCl (Bethesda; MD, USA) or were purchased from ATCC (Rockville, Md., USA) or DSMZ (Braunschweig, Germany).
Cell lines were routinely passaged once or twice weekly and maintained in culture for upto 20 passages. All the cells were grown at 37° C. in a humidified atmosphere with 5% (Carbon Dioxide) CO2 in RPMI 1640 medium supplemented with 10% (v/v) fetal calf serum (FCS) and 0.1 mg/ml gentamicin (medium and all other components from PAA, Colbe, Germany). Authenticity of all cell lines was proven by STR (short tandem repeat) analysis, a PCR based DNA-fingerprinting methodology.
Stock solutions of the compound of formula (1) (3.3 mM in DMSO) were prepared and stored in small aliquots (200 μl) at −20° C. An aliquot of the stock solution was thawed on the day of use and stored at room temperature prior to and during dosing. The subsequent dilutions were done with complete RPMI 1640 cell culture medium as follows: the stock solution was diluted 1:22 followed by serial dilutions finally resulting in a (compared to the test concentration) 15-fold higher concentration. For the final dilution step (1:15), 10 μl/well of the solution was directly added to 140 μl/well culture medium. Compound of formula (1) [also referred as test compound] was tested at 0.00032, 0.001, 0.0032, 0.01, 0.032, 0.1, 0.32, 1, 3.2 and 10 μM. Each concentration was evaluated in triplicate.
A modified Propidium Iodide assay was used to assess the effect of the compound of formula (1) on the growth of the human tumor cell lines and was designed as in reference, Anti-cancer Drugs, 6, 522-532, (1995), the disclosure of which is incorporated by reference for the teaching of the assay.
Cells were plated in 96-well flat-bottom microtiter plates at a cell density of 4,000 to 20,000 cells/well. After a 24 hr recovery period to allow the cells to resume exponential growth, the compound of formula (1) was applied at 10 concentrations in half-log increments in triplicates and treatment continued for 4 days. After 4 days of treatment, cells were next washed with 200 μl phosphate buffer solution (PBS) to remove dead cells, then 200 μl of a solution containing 7 μg/ml propidium iodide (PI) and 0.1% (v/v) Triton X-100 were added to the wells. After an incubation period of 1-2 hours at room temperature, fluorescence (FU) was measured using the Cytofluor 4000 microplate reader (excitation λ=530 nm, emission λ=620 nm) to quantify the amount of attached viable cells. Pharmacological effects on cell proliferation and survival were expressed as Test/Control×100 (% T/C) values, with T and C representing the fluorescence read-outs for wells with and without test compound, respectively, i.e. T/C represents the ratio of viable cell numbers following incubation of cell line with and without test compound. Based on the T/C values, relative IC50 values were determined by non-linear regression (log [conc. of inhibitor] versus response (% T/C)) using the GraphPad Prism® analysis software (Prism 5 for Windows, version 5.01, GraphPad Software Inc., CA). For calculation of mean IC50 values over the 40 cell lines as tested, the geometric mean was selected. If Graph Pad Prism could not calculate reliable IC50 values by non-linear regression, the IC50 value was estimated by visual inspection of the concentration-effect curve.

[3] = test system: BXF T 24; assay: Monolayer propidium iodide assay, BXF T 24; assay type: cell-based; conditions: Homo sapiens, 96 h; BXF T 24, Bladder; 4 days of treatment
Excerpt: as §1, §2, §3

[4] = test system: PAXF 546L; assay: Monolayer propidium iodide assay, PAXF 546L; assay type: cell-based; conditions: Homo sapiens, 96 h, Pancreas, 4 days of treatment
Excerpt: as §1, §2, §3

[5] = test system: SXF TE671; assay: Monolayer propidium iodide assay, SXF TE671; assay type: cell-based; conditions: Homo sapiens, TE-671, 96 h; SXF TE671, Sarcoma; 4 days of treatment
Excerpt: as §1, §2, §3

[6] = test system: PXF 698L; assay: Monolayer propidium iodide assay, PXF 698L; assay type: cell-based; conditions: Homo sapiens, 96 h, Pleuramesothelioma, 4 days of treatment
Excerpt: as §1, §2, §3

[7] = test system: PXF 1752L; assay: Monolayer propidium iodide assay, PXF 1752L; assay type: cell-based; conditions: Homo sapiens, 96 h, Pleuramesothelioma, 4 days of treatment
Excerpt: as §1, §2, §3

[8] = test system: PRXF PC3M; assay: Monolayer propidium iodide assay, PRXF PC3M; assay type: cell-based; conditions: Homo sapiens, PC-3M, 96 h, Prostate, 4 days of treatment
Excerpt: as §1, §2, §3

[9] = test system: CXF HCT 116; assay: Monolayer propidium iodide assay, CXF HCT 116; assay type: cell-based; conditions: Homo sapiens, 96 h; CXF HCT 116, Colon; 4 days of treatment
Excerpt: as §1, §2, §3

[10] = test system: BXF 1218L; assay: Monolayer propidium iodide assay, BXF 1218L; assay type: cell-based; conditions: Homo sapiens, 96 h, Bladder, 4 days of treatment
Excerpt: as §1, §2, §3

[11] = test system: MAXF MCF 7; assay: Monolayer propidium iodide assay, MAXF MCF 7; assay type: cell-based; conditions: Homo sapiens, MCF7, 96 h; MAXF MCF 7, Mammary; 4 days of treatment
Excerpt: as §1, §2, §3

[12] = test system: LIXF 575L; assay: Monolayer propidium iodide assay, LIXF 575L; assay type: cell-based; conditions: Homo sapiens, 96 h, Liver, 4 days of treatment
Excerpt: as §1, §2, §3

[13] = Solubility (physical properties); assay type: physicochemical

CCCC1CCCCCC(O)CC(=O)NC2CSSCC(NC2=O)C(=O)O1 (stereo not shown) [compound of formula (1)]
IC50 [1]: 39 nM
antitumor activity in all cell lines as tested ([2]; 0.00032 to 10 μM, 40 cell lines, 15 histotypes): concentration-dependent antitumor activity
Tumor selectivity: number of cell lines with individual IC50 < mean IC50 ([2]; Bladder): 2 out of 3 and 2/3
Tumor selectivity: number of cell lines with individual IC50 < mean IC50 ([2]; Breast): 1/3
Tumor selectivity: number of cell lines with individual IC50 < mean IC50 ([2]; Colon): 3/4
IC50 ([2]; 3/3 pancreatic tumor cell lines, read-out: individual IC50, pancreatic tumor cell lines): < 60 nM
IC50 ([2]; 5/6 cell lines derived from lung carcinoma, read-out: individual IC50, lung carcinoma cell lines): < 50 nM
IC50 ([2]; geometric mean over the 40 cell lines, read-out: Mean IC50): 89 nM
IC50 ([2]; upper bound for every cell line of the panel, read-out: IC50 achieved for all the 40 cell lines): < 330 nM
Tumor selectivity: number of cell lines with individual IC50 < mean IC50 ([2]; Kidney): 0/3
Tumor selectivity: number of cell lines with individual IC50 < mean IC50 ([2]; Lung): 5/6
Tumor selectivity: number of cell lines with individual IC50 < mean IC50 ([2]; Melanoma): 0/3
Tumor selectivity: number of cell lines with individual IC50 < mean IC50 ([2]; Pancreas): 3/3
Tumor selectivity: number of cell lines with individual IC50 < mean IC50 ([2]; Pleurameso): 1/3
Tumor selectivity: number of cell lines with individual IC50 < mean IC50 ([2]; Prostate): 2/4
IC50 [3]: 50 nM
IC50 [4]: 16 nM
IC50 [5]: 82 nM
IC50 [6]: 178 nM
IC50 [7]: 187 nM
IC50 [8]: 47 nM
IC50 [9]: 48 nM
IC50 [10]: 46 nM
IC50 [11]: 276 nM
IC50 [12]: 295 nM
Solubility ([13]; in chloroform and methanol): sparingly soluble in chloroform and methanol; and
Solubility ([13]; in pyridine, acetic acid, dimethyl sulfoxide): Soluble in pyridine, acetic acid, dimethyl sulfoxide;
Solubility ([13]; in water): insoluble in water
